Active and inactive are the calls of the source. The rule behind the calls is not given here.

In assay [1] the target is 5'-AMP-activated protein kinase catalytic subunit alpha-1 (Homo sapiens) (UniProt Q13131). Description: Inhibition of AMPKa1 ATP Loop labeling site in human Huh-7 cells at 1 uM by KiNativ Profiling analysis relative to control. The format is cell-based.
The target in assay [2] is T1, Mitogen-activated protein kinase kinase kinase 2 (Homo sapiens) (UniProt Q9Y2U5).
T1 sequence (whole entry): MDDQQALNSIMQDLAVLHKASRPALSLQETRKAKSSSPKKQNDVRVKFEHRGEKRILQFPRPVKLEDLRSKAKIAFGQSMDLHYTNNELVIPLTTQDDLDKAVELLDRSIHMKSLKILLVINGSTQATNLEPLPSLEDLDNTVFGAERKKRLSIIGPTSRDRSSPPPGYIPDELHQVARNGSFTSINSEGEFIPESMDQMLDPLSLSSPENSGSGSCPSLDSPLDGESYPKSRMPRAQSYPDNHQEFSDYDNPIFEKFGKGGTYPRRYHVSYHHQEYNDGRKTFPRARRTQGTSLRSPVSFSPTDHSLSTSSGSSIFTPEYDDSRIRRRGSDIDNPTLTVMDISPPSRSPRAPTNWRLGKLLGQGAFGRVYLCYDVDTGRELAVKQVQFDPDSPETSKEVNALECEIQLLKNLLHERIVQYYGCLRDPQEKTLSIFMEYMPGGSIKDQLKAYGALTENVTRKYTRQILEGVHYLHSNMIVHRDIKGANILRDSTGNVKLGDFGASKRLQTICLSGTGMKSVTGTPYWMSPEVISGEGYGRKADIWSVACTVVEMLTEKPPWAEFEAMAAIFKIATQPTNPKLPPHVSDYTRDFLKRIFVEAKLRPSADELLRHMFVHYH
Description: Inhibition of MAP3K2 Lys1 labeling site in human Huh-7 cell lysate at 1 uM by KiNativ Profiling analysis relative to control. Type of assay: subcellular.

Assay [3] can be described thus: Inhibition of KHS1 Lys1 labeling site in human Huh-7 cell lysate at 1 uM by KiNativ Profiling analysis relative to control. Particulars: condition cancer.
Assay [4] addresses T2, Phosphatidylinositol 5-phosphate 4-kinase type-2 gamma (Homo sapiens) (UniProt Q8TBX8).
T2 sequence (whole entry): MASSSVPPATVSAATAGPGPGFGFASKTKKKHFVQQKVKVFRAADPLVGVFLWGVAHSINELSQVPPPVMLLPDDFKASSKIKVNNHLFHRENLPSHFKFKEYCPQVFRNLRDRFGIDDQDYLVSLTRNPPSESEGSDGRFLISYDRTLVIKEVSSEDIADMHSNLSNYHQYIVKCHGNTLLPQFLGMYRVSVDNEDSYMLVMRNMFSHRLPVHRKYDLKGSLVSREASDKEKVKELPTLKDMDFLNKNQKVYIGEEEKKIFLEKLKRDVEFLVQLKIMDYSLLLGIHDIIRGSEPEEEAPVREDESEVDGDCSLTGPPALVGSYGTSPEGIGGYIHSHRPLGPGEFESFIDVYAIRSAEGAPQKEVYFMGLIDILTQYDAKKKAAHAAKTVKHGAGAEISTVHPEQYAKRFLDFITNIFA
Nature of the assay: Inhibition of PIP4K2C ATP labeling site harbouring TLVIKEVSSEDIADMHSNLSNYHQYIVK in human Huh-7 cells at 1 uM by KiNativ Profiling analysis relative to control. The format is cell-based.

Assay [5] concerns the target Serine/threonine-protein kinase 4 (Homo sapiens) (UniProt Q13043). Nature of the assay: Inhibition of MST1 Lys1 labeling site harbouring AIHKETGQIVAIKQVPVESDLQEIIK in human A-375 cells at 0.5 uM by KiNativ Profiling analysis relative to control.
Assay [6] deals with Proto-oncogene tyrosine-protein kinase Src (Homo sapiens, UniProt P12931). Nature of the assay: Inhibition of SRC (unknown origin) at 1 uM by Ambit Kinomescan binding assay relative to control.
In assay [7] the target is RPS6KA1/RPS6KA2/RPS6KA3 (Homo sapiens) (UniProt P51812+Q15349+Q15418). Description: Inhibition of RSK1/2/3 Domain 1 K2 labeling site harbouring DLKPENILLDEEGHIK in human Huh-7 cells at 1 uM by KiNativ Profiling analysis relative to control. The format is cell-based.
The target of assay [8] is T3, Mitogen-activated protein kinase kinase kinase 5 (Homo sapiens) (UniProt Q99683).
T3 sequence (whole entry): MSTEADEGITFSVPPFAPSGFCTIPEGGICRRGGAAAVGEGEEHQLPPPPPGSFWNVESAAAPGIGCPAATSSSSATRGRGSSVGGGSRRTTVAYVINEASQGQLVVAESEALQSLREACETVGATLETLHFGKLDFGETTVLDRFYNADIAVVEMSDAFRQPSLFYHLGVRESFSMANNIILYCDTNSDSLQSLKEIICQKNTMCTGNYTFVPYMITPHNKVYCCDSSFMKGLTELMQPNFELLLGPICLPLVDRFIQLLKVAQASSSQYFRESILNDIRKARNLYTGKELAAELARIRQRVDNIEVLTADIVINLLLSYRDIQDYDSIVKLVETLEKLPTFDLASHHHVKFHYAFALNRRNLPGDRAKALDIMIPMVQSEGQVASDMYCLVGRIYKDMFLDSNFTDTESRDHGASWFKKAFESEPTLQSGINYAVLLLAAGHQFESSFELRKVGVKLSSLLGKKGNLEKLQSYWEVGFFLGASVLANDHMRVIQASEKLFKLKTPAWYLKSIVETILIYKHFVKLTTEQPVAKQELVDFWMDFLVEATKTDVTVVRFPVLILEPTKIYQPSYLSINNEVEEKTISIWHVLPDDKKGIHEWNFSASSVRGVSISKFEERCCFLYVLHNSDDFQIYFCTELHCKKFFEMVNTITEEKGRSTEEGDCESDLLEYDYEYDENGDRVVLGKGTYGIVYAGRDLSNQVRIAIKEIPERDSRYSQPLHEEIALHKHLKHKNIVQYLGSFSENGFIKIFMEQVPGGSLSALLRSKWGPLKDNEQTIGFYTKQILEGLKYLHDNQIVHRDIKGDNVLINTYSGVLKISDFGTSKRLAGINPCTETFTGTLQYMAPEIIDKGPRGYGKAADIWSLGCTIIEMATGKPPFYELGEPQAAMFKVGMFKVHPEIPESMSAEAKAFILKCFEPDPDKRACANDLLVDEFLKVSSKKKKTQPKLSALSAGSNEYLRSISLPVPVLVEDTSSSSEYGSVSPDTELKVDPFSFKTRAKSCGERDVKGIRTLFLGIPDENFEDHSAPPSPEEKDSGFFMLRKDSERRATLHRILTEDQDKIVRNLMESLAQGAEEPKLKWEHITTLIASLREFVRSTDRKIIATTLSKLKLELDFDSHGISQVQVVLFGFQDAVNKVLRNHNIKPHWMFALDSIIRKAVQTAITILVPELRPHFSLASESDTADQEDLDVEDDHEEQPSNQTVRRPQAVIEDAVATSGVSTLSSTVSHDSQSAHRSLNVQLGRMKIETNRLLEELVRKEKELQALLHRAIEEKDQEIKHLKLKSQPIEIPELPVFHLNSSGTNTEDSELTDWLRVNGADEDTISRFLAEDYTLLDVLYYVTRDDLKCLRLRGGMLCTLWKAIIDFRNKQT
Nature of the assay: Inhibition of ASK1 (unknown origin) at 10 uM by Ambit Kinomescan binding assay.

Sequence of 5'-AMP-activated protein kinase catalytic subunit alpha-1 (Homo sapiens) (Q13131 whole entry, looked up): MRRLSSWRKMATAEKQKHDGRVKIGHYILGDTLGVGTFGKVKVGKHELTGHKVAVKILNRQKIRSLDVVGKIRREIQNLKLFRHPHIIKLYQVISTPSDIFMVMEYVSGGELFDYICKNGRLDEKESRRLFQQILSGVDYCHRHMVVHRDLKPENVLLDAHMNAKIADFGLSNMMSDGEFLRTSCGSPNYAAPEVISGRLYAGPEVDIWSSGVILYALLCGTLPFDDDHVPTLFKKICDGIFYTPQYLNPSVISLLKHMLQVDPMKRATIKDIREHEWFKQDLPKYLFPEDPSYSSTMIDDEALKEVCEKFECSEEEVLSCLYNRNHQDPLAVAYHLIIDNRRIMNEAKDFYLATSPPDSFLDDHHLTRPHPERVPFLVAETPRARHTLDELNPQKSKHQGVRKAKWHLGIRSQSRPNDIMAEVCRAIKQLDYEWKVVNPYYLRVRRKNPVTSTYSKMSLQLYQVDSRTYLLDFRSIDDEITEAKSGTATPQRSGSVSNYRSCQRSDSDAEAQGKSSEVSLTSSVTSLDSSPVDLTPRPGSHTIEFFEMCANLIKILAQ
Sequence of Proto-oncogene tyrosine-protein kinase Src (P12931 2-536 limits assumed): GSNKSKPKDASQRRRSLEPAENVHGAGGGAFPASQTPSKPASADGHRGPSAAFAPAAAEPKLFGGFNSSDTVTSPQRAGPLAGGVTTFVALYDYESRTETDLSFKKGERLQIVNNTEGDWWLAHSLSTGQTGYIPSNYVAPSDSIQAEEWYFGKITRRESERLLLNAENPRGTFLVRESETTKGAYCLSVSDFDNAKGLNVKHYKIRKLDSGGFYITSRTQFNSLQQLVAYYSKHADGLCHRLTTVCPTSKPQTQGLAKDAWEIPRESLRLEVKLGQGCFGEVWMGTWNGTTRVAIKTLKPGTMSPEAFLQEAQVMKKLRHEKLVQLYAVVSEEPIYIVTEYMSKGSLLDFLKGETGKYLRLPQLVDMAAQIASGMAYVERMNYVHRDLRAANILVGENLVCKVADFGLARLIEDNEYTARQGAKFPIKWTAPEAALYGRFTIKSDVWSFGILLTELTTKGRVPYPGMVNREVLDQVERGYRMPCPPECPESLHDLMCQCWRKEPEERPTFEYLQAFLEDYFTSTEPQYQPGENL
Sequence of RPS6KA1/RPS6KA2/RPS6KA3 (Homo sapiens) (P51812 whole entry, looked up): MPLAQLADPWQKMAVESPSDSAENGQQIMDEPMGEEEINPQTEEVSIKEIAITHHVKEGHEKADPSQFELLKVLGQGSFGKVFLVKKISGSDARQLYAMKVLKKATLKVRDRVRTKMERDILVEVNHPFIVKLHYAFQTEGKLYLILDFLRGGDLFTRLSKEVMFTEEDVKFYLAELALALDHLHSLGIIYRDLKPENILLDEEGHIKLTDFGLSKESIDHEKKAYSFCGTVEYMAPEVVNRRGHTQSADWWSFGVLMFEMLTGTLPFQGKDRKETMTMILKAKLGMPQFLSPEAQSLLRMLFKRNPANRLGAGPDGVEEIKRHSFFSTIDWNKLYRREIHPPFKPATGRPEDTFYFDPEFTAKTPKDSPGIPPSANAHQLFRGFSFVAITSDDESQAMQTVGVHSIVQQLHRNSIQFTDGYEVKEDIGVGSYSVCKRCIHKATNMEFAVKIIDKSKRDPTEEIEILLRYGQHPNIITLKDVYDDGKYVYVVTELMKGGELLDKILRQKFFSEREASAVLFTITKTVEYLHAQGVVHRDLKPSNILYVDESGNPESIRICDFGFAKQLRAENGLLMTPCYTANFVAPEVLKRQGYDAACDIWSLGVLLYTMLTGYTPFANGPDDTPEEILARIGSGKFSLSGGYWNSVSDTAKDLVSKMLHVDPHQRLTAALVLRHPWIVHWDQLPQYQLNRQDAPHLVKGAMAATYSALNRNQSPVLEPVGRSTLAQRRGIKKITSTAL
Sequence of RPS6KA1/RPS6KA2/RPS6KA3 (Homo sapiens) (Q15349 whole entry, looked up): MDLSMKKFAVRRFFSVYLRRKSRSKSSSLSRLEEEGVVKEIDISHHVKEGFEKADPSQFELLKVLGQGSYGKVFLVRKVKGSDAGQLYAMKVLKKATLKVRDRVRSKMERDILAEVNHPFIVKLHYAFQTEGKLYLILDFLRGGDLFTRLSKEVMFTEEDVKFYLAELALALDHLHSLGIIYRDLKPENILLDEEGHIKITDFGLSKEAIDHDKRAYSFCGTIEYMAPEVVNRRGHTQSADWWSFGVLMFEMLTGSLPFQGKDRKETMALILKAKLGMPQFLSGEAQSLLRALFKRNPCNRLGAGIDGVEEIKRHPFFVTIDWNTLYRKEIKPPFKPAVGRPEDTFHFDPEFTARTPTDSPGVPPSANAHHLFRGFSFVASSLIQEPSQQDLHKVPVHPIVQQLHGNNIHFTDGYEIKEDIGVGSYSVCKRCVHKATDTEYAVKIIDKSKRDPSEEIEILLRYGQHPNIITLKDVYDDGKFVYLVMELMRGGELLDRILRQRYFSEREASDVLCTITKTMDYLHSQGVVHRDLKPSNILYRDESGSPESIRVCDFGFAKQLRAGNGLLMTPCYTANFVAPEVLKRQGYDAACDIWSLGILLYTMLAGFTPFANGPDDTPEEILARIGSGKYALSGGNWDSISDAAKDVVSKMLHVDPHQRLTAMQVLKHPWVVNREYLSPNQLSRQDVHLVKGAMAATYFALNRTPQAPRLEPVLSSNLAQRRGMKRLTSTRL
Sequence of RPS6KA1/RPS6KA2/RPS6KA3 (Homo sapiens) (Q15418 whole entry, looked up): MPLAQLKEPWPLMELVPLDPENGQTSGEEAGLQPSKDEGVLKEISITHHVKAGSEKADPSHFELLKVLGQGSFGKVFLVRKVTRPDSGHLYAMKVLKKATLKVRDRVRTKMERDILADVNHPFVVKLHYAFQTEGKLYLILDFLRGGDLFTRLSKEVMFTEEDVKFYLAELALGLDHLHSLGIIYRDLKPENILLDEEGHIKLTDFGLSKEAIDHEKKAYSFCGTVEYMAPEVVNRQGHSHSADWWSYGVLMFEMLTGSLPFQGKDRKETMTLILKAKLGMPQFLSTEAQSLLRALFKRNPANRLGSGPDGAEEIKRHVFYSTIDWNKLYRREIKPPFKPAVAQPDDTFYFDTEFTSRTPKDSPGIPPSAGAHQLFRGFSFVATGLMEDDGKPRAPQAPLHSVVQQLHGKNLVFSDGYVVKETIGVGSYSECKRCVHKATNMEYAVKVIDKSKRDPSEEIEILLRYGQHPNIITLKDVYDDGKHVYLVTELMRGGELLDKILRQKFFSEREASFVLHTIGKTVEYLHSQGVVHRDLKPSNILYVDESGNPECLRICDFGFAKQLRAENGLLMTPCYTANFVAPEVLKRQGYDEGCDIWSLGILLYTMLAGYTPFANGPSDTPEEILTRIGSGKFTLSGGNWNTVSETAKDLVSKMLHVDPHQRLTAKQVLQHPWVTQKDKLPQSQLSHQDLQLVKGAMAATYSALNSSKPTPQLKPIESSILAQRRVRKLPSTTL
Sequence of Serine/threonine-protein kinase 4 (Homo sapiens) (Q13043 whole entry, looked up): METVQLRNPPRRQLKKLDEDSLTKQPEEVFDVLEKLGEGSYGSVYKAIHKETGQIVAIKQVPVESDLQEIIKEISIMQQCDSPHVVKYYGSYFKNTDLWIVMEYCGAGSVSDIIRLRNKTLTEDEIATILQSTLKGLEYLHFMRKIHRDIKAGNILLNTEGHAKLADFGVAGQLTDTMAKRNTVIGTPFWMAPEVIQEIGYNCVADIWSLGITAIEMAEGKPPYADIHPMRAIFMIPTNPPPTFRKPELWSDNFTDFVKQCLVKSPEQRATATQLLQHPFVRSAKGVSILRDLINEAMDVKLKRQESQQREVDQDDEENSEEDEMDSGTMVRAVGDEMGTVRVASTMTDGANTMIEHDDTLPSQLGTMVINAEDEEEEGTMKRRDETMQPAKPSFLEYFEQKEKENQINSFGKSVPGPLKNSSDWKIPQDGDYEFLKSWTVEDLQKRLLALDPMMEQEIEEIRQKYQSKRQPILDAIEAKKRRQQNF

Consider `CNc1cc(Oc2cc(C(=O)Nc3cc(N4CCN(C)CC4)cc(C(F)(F)F)c3)ccc2C)ncn1`, for which the inhibition (commonly the change of the read-out against control, counted positive when it falls) in assay [1] is -3.8%; in assay [2] it was 11%; in assay [4], 12.8%. In addition, the inhibition at 1 µM in assay [3] is -10.2%.
Turning to `CCN1CCN(Cc2ccc(NC(=O)c3ccc(C)c(/C=C/c4cnc5[nH]ccc5c4OC)c3)cc2C(F)(F)F)CC1`, the results for the inhibition in assay [5] and in assay [6] were -4.7% and 2.8%, respectively.
On to `CCN1CCN(Cc2ccc(NC(=O)c3ccc(C)c(Oc4ccnc5[nH]ccc45)c3)cc2C(F)(F)F)CC1`, for which, in assay [7], the inhibition was determined as 5%. The inhibition result in assay [8] is “inactive”.

These data come from ChEMBL document CHEMBL5696442, “Discovery of type II inhibitors of TGFβ-activated kinase 1 (TAK1) and mitogen-activated protein kinase kinase kinase kinase 2 (MAP4K2)” (J Med Chem, 2015).
